Like-named read-outs stand apart in the source and are kept apart here.

The test system of assay [1] is p21 induction in HCT 116 cells. The assay can be described thus: p21 induction in cells (In-Cell Western, p21/GAPDH ratio). It counts as cell-based. Particulars: 24 h compound incubation, read-out: p21_EC50. In short, it runs like this: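 EC50 values come from nonlinear fits of percent activation, defined by the 800/700 nm p21-to-GAPDH ratio scaled between DMSO (low) and internal WRN inhibitor (high) controls. In-Cell Western read after 24 h compound exposure of HCT 116 cells at 37° C. Duplicate 11-point series, 2-fold steps, usually starting at 10 μM.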

The target in assay [2] is human Werner helicase (WRN, amino acids 517-1235 with L1074F point mutation) (Homo sapiens (Human), UniProt Q14191, L1074F). Kind of assay: WRN (BV08) ADP-Glo assay. Particulars: human WRN (aa 517-1235, L1074F), read-out: ADP-Glo_hWRN_IC50. It counts as biochemical. The procedure, abridged: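 ADP-Glo luminescence read after 60 min, 25 °C reaction of 0.15 nM WRN (517-1235, L1074F, Sf9-expressed, tag removed) with 0.1 nM DNA duplex and 5 μM ATP, following 15 min compound preincubation; 20 mM Bicine pH 7.5, 1% DMSO. IC50 from 3- or 4-parameter fit of % inhibition.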
human Werner helicase (WRN, amino acids 517-1235 with L1074F point mutation), sequence (Q14191 other isoform, or with tags, fused parts or gaps L1074F (already in the parent)): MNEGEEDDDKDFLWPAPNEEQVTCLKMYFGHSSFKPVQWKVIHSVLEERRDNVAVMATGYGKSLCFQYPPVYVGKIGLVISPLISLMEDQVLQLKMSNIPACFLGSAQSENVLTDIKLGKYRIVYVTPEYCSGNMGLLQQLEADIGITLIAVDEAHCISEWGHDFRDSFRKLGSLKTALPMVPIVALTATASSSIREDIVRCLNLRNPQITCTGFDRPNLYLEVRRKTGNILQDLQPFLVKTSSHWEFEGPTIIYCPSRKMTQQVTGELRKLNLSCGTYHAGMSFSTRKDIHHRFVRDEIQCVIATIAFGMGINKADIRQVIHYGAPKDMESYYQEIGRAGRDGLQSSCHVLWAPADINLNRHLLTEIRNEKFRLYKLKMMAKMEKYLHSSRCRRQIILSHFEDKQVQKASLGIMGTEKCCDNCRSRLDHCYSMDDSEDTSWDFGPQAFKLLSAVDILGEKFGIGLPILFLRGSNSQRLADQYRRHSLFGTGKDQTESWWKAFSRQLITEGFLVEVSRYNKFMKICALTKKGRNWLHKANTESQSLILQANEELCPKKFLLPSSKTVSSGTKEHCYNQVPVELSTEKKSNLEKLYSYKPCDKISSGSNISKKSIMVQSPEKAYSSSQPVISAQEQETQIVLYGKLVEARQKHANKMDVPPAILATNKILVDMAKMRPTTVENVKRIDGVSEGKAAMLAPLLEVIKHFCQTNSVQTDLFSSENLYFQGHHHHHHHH

As to `CCc1c(N2CCN(C(=O)c3c(O)cccc3OC(F)(F)F)CC2)c(=O)c2nn(-c3ccnc(OC)c3)nc2n1CC(=O)NC12CC(C3CC3)(C1)C2` [Compound I-136, N-{3-cyclopropylbicyclo[1.1.1]pentan-1-yl}-2-(5-ethyl-6-{4-[2-hydroxy-6-(trifluoromethoxy)benzoyl]piperazin-1-yl}-2-(2-methoxypyridin-4-yl)-7-oxo-2H,4H,7H-[1,2,3]triazolo[4,5-b]pyridin-4-yl)acetamide], in assay [1] (Homo sapiens), the EC50 was in the range of 2000 to 5000 nM. In addition, in assay [2], the IC50 is 5 to 50 nM.
The matching figures for `CCc1c(C2=C(C)CN(C(=O)c3ncnc(C)c3O)CC2)c(=O)c2nn(-c3ccnc(OC)c3)nc2n1CC(=O)NC12CC(C(C)C)(C1)C2` [Compound I-78, 2-{5-ethyl-6-[1-(5-hydroxy-6-methylpyrimidine-4-carbonyl)-5-methyl-1,2,3,6-tetrahydropyridin-4-yl]-2-(2-methoxypyridin-4-yl)-7-oxo-2H,4H,7H-[1,2,3]triazolo[4,5-b]pyridin-4-yl}-N-[3-(propan-2-yl)bicyclo[1.1.1]pentan-1-yl]acetamide]: 2000 to 5000 nM and 5 to 50 nM.
The matching figures for `CCc1c(N2CCN(C(=O)c3ncnc(C)c3O)[C@H]3CC[C@@H]32)c(=O)c2nn(C3=CCOCC3)nc2n1CC(=O)NC12CC(C3CC3)(C1)C2` [Compound I-26, N-(3-cyclopropylbicyclo[1.1.1]pentan-1-yl)-2-(2-(3,6-dihydro-2H-pyran-4-yl)-5-ethyl-6-((1S,6S)-5-(5-hydroxy-6-methylpyrimidine-4-carbonyl)-2,5-diazabicyclo[4.2.0]octan-2-yl)-7-oxo-2,7-dihydro-4H-[1,2,3]triazolo[4,5-b]pyridin-4-yl)acetamide]: no more than 500 nM and 5 to 50 nM.
The matching figures for `CCc1c(N2CCN(C(=O)c3ncnc(C)c3O)[C@H]3CC[C@@H]32)c(=O)c2nn(-c3cc(C)n(C)n3)nc2n1CC(=O)NC1CC2(CCC2)C1` [Compound I-36, 2-[2-(1,5-dimethyl-1H-pyrazol-3-yl)-5-ethyl-6-[(1S,6S)-5-(5-hydroxy-6-methylpyrimidine-4-carbonyl)-2,5-diazabicyclo[4.2.0]octan-2-yl]-7-oxo-2H,4H,7H-[1,2,3]triazolo[4,5-b]pyridin-4-yl]-N-{spiro[3.3]heptan-2-yl}acetamide]: no more than 500 nM and 5 to 50 nM.
With `CCc1c(N2CCN(C(=O)c3c(OC)ncc(C)c3O)[C@H]3CC[C@@H]32)c(=O)c2nn(C3=CCOCC3)nc2n1CC(=O)NC12CC(C(C)C)(C1)C2` [Compound I-24, 2-(2-(3,6-dihydro-2H-pyran-4-yl)-5-ethyl-6-((1S,6S)-5-(4-hydroxy-2-methoxy-5-methylnicotinoyl)-2,5-diazabicyclo[4.2.0]octan-2-yl)-7-oxo-2,7-dihydro-4H-[1,2,3]triazolo[4,5-b]pyridin-4-yl)-N-(3-isopropylbicyclo[1.1.1]pentan-1-yl)acetamide], the EC50 in assay [1] (Homo sapiens) is no more than 500 nM. Also, the IC50 in assay [2] was in the range of 5 to 50 nM.
On the same counts, the results for `CCc1c(N2CCN(C(=O)c3ncnc(C)c3O)CC2)c(=O)c2nn(-c3ccncc3)nc2n1CC(=O)Nc1ccc(C(F)(F)F)cc1Cl` [Compound I-147, N-[2-chloro-4-(trifluoromethyl)phenyl]-2-{5-ethyl-6-[4-(5-hydroxy-6-methylpyrimidine-4-carbonyl)piperazin-1-yl]-7-oxo-2-(pyridin-4-yl)-2H,4H,7H-[1,2,3]triazolo[4,5-b]pyridin-4-yl}acetamide] are no more than 500 nM and no more than 5 nM.
The matching figures for `CCc1c(N2CCN(C(=O)c3ncnc(C)c3O)[C@H]3CC[C@@H]32)c(=O)c2nn(-c3ccnc(OC)c3)nc2n1CC(=O)Nc1ccc(C(F)(F)F)cc1F` [Compound I-126, 2-{5-ethyl-6-[(1S,6S)-5-(5-hydroxy-6-methylpyrimidine-4-carbonyl)-2,5-diazabicyclo[4.2.0]octan-2-yl]-2-(2-methoxypyridin-4-yl)-7-oxo-2H,4H,7H-[1,2,3]triazolo[4,5-b]pyridin-4-yl}-N-[2-fluoro-4-(trifluoromethyl)phenyl]acetamide]: no more than 500 nM and no more than 5 nM.
With `CCc1c(N2CCN(C(=O)c3ncnc(C)c3O)[C@H]3CC[C@@H]32)c(=O)c2nn(-c3ccnc(OC)c3)nc2n1CC(=O)NC1CC2(CC(C)C2)C1` (stereo partly drawn) [Compound I-88, 2-{5-ethyl-6-[(1S,6S)-5-(5-hydroxy-6-methylpyrimidine-4-carbonyl)-2,5-diazabicyclo[4.2.0]octan-2-yl]-2-(2-methoxypyridin-4-yl)-7-oxo-2H,4H,7H-[1,2,3]triazolo[4,5-b]pyridin-4-yl}-N-{6-methylspiro[3.3]heptan-2-yl}acetamide], in assay [1] (Homo sapiens), the EC50 was 500 to 2000 nM. Moreover, in assay [2], the IC50 lay in the range of 5 to 50 nM.
The matching figures for `CCc1c(N2CCN(C(=O)c3ncnc(C)c3O)CC2)c(=O)c2nn(-c3ccncc3)nc2n1CC(=O)NC12CC(C3CCC3)(C1)C2` [Compound I-141, N-{3-cyclobutylbicyclo[1.1.1]pentan-1-yl}-2-{5-ethyl-6-[4-(5-hydroxy-6-methylpyrimidine-4-carbonyl)piperazin-1-yl]-7-oxo-2-(pyridin-4-yl)-2H,4H,7H-[1,2,3]triazolo[4,5-b]pyridin-4-yl}acetamide]: 500 to 2000 nM and 5 to 50 nM.
The matching figures for `CCc1c(N2CCN(C(=O)c3ccccc3C(=O)O)CC2)c(=O)c2nn(-c3ccnc(OC)c3)nc2n1CC(=O)NC12CC(C3CC3)(C1)C2` [Compound I-161, 2-(4-{4-[{{3-cyclopropylbicyclo[1.1.1]pentan-1-yl}carbamoyl)methyl]-5-ethyl-2-(2-methoxypyridin-4-yl)-7-oxo-2H,4H,7H-[1,2,3]triazolo[4,5-b]pyridin-6-yl}piperazine-1-carbonyl)benzoic acid]: greater than 5000 nM and 5 to 50 nM.
The matching figures for `CCc1c(N2CCN(C(=O)c3cccc(N4CCN(C)CC4)c3OC)[C@H]3CC[C@@H]32)c(=O)c2nn(C3=CCOCC3)nc2n1CC(=O)NC12CC(C(C)C)(C1)C2` [Compound I-169, 2-[2-(3,6-dihydro-2H-pyran-4-yl)-5-ethyl-6-[(1S,6S)-5-[2-methoxy-3-(4-methylpiperazin-1-yl)benzoyl]-2,5-diazabicyclo[4.2.0]octan-2-yl]-7-oxo-2H,4H,7H-[1,2,3]triazolo[4,5-b]pyridin-4-yl]-N-[3-(propan-2-yl)bicyclo[1.1.1]pentan-1-yl]acetamide]: 2000 to 5000 nM and 5 to 50 nM.
`CCc1c(N2CCN(C(=O)c3c(OC)ncc(C)c3O)[C@H]3CC[C@@H]32)c(=O)c2nn(C3=CCOCC3)nc2n1CC(=O)NC12CC(C(C)C)(C1)C2` [Compound I-92, 2-[2-(3,6-dihydro-2H-pyran-4-yl)-5-ethyl-6-[(1S,6S)-5-(4-hydroxy-2-methoxy-5-methylpyridine-3-carbonyl)-2,5-diazabicyclo[4.2.0]octan-2-yl]-7-oxo-2H,4H,7H-[1,2,3]triazolo[4,5-b]pyridin-4-yl]-N-[3-(propan-2-yl)bicyclo[1.1.1]pentan-1-yl]acetamide]: in assay [1], the EC50 is no more than 500 nM. For the same compound, the IC50 in assay [2] fell in the range of 5 to 50 nM.
Consider `CCc1c(N2CCN(C(=O)c3ncnc(C)c3O)[C@H]3CC[C@@H]32)c(=O)c2nn(-c3ccn(C)n3)nc2n1CC(=O)NC12CC(C(C)C)(C1)C2` [Compound I-187, 2-{5-ethyl-6-[(1S,6S)-5-(5-hydroxy-6-methylpyrimidine-4-carbonyl)-2,5-diazabicyclo[4.2.0]octan-2-yl]-2-(1-methyl-1H-pyrazol-3-yl)-7-oxo-2H,4H,7H-[1,2,3]triazolo[4,5-b]pyridin-4-yl}-N-[3-(propan-2-yl)bicyclo[1.1.1]pentan-1-yl]acetamide], for which the EC50 in assay [1] (Homo sapiens) is no more than 500 nM. Also, the IC50 in assay [2] was in the range of 5 to 50 nM.
On the same counts, the results for `CCc1c(N2CCN(C(=O)c3c(O)ccnc3OC)CC2)c(=O)c2nn(-c3ccnc(OC)c3)nc2n1CC(=O)NC12CC(C(F)(F)F)(C1)C2` [Compound I-143, 2-{5-ethyl-6-[4-(4-hydroxy-2-methoxypyridine-3-carbonyl)piperazin-1-yl]-2-(2-methoxypyridin-4-yl)-7-oxo-2H,4H,7H-[1,2,3]triazolo[4,5-b]pyridin-4-yl}-N-[3-(trifluoromethyl)bicyclo[1.1.1]pentan-1-yl]acetamide] are 500 to 2000 nM and 5 to 50 nM.
The matching figures for `CCc1c(N2CCN(C(=O)c3ncnc(C)c3O)CC2)c(=O)c2nn(-c3ccn(C4CC4)n3)nc2n1CC(=O)Nc1ccc(C(F)(F)F)cc1Cl` [Compound I-8, N-(2-chloro-4-(trifluoromethyl)phenyl)-2-(2-(1-cyclopropyl-1H-pyrazol-3-yl)-5-ethyl-6-(4-(5-hydroxy-6-methylpyrimidine-4-carbonyl)piperazin-1-yl)-7-oxo-2,7-dihydro-4H-[1,2,3]triazolo[4,5-b]pyridin-4-yl)acetamide]: no more than 500 nM and no more than 5 nM.
On the same counts, the results for `CCc1c(N2CCN(C(=O)c3ncnc(C)c3O)[C@H]3CC[C@@H]32)c(=O)c2nn(-c3cnn(C4CC4)c3)nc2n1CC(=O)NC12CC(C3CC3)(C1)C2` [Compound I-46, 2-[2-(1-cyclopropyl-1H-pyrazol-4-yl)-5-ethyl-6-[(1S,6S)-5-(5-hydroxy-6-methylpyrimidine-4-carbonyl)-2,5-diazabicyclo[4.2.0]octan-2-yl]-7-oxo-2H,4H,7H-[1,2,3]triazolo[4,5-b]pyridin-4-yl]-N-{3-cyclopropylbicyclo[1.1.1]pentan-1-yl}acetamide] are no more than 500 nM and 5 to 50 nM.

(Values after patent publication US20250129069A1, “TRIAZOLO WRN INHIBITORS” (Nimbus Wadjet, Inc., priority 2023, published 2025).)
